One test has as its target recombinant human ACC2 (Homo sapiens (Human), UniProt O00763). Nature of the test: Measurement of inhibitory activity on human ACC2 (MALDI-TOF MS, conversion of acetyl CoA to malonyl CoA). Type of test: biochemical. The following applies: recombinant human ACC2, room temperature, 1 to 3 hours. The text has this: After a cDNA encoding human ACC2 (27 amino acid residue to 2458 amino acid residues from the N-terminus) was cloned from human kidney cDNA library (Clontech), human ACC2 gene containing His-tag sequence at 5′ terminus was inserted into pFastBac1 (Invitrogen). Recombinant baculovirus was generated using Bac-to-Bac baculovirus expression system (Invitrogen) according to the manufacturer's protocol. To express human ACC2, Sf-9 cells were infected with recombinant baculovirus. After infected cells were disrupted, the filtrated lysate was subjected to Ni-affinity chromatography and anion-exchange chromatography. The fractions containing human ACC2 protein were pooled as recombinant human ACC2 solution.
(§1) Recombinant human ACC1 and recombinant human ACC2, which were prepared by the method mentioned above, were preincubated with assay buffer solution (50 mM HEPES-KOH (pH 7.4), 10 mM magnesium chloride, 6-10 mM potassium citrate, 4 mM reduced form of glutathione, 1.5 mg/ml bovine serum albumin) for one hour. Then, 0.2 μL of each this invention compound solution (in DMSO) were dispensed to 384-well microplate, 5 μL of the preincubated enzyme solution and 5 μL of substrate solution (50 mM HEPES-KOH (pH 7.4), 1 mM ATP, 0.8 mM acetyl CoA and 25-50 mM potassium bicarbonate) were added to microplate. After centrifugation and shaking, the reaction mixtures were incubated in a humidified box at room temperature for 1 to 3 hours. After the incubation, the enzyme reactions were stopped by the addition of EDTA. Then, after the samples were cocrystallized with CHCA (α-cyano-4-hydroxy cinnamic acid) matrices on MALDI target plate, by using the matrix assist laser […] time-of-flight mass spectrometer (MALDI-TOF MS), samples were measured in reflector negative mode. Deprotonated ions of acetyl CoA (AcCoA) of substrate and malonyl CoA (MalCoA) of the reaction product were detected, then, the conversion rates of acetyl CoA to malonyl CoA was calculated by the intensity of [MalCoA-H]−/(Intensity of [MalCoA-H].+Intensity of [AcCoA-H]—) using each signal strength. […] In addition, potassium citrate concentrations in assay buffer solution, potassium hydrogen carbonate concentrations in substrate solution and incubation time were adjusted by each lot of enzyme.

The target of a further test is recombinant human ACC1 (Homo sapiens (Human), UniProt Q13085). Nature of the test: Measurement of inhibitory activity on human ACC1 (MALDI-TOF MS, conversion of acetyl CoA to malonyl CoA). Type of test: biochemical. The note with it: recombinant human ACC1, room temperature, 1 to 3 hours.
Source text: After a cDNA encoding human ACC1 (1 amino acid residue to 2346 amino acid residues from the N-terminus) was cloned from human liver cDNA library (BioChain), human ACC1 gene containing myc-tag and His-tag sequence at 3′ terminus was inserted into pIEXBAC3 (Novagen). Recombinant baculovirus was generated using FlashBACGOLD system (Oxford Expression Technologies) according to the manufacturer's protocol. To express human ACC1, Sf-9 cells were infected with recombinant baculovirus. After infected cells were disrupted, the filtrated lysate was subjected to Ni-affinity chromatography and anion-exchange chromatography. The fractions containing human ACC1 protein were pooled as recombinant human ACC1 solution.
as §1

Each structure is given as a SMILES string.

In general, IC50 refers to the concentration that inhibits the measured activity by half.

recombinant human ACC2, sequence (O00763 27-2458): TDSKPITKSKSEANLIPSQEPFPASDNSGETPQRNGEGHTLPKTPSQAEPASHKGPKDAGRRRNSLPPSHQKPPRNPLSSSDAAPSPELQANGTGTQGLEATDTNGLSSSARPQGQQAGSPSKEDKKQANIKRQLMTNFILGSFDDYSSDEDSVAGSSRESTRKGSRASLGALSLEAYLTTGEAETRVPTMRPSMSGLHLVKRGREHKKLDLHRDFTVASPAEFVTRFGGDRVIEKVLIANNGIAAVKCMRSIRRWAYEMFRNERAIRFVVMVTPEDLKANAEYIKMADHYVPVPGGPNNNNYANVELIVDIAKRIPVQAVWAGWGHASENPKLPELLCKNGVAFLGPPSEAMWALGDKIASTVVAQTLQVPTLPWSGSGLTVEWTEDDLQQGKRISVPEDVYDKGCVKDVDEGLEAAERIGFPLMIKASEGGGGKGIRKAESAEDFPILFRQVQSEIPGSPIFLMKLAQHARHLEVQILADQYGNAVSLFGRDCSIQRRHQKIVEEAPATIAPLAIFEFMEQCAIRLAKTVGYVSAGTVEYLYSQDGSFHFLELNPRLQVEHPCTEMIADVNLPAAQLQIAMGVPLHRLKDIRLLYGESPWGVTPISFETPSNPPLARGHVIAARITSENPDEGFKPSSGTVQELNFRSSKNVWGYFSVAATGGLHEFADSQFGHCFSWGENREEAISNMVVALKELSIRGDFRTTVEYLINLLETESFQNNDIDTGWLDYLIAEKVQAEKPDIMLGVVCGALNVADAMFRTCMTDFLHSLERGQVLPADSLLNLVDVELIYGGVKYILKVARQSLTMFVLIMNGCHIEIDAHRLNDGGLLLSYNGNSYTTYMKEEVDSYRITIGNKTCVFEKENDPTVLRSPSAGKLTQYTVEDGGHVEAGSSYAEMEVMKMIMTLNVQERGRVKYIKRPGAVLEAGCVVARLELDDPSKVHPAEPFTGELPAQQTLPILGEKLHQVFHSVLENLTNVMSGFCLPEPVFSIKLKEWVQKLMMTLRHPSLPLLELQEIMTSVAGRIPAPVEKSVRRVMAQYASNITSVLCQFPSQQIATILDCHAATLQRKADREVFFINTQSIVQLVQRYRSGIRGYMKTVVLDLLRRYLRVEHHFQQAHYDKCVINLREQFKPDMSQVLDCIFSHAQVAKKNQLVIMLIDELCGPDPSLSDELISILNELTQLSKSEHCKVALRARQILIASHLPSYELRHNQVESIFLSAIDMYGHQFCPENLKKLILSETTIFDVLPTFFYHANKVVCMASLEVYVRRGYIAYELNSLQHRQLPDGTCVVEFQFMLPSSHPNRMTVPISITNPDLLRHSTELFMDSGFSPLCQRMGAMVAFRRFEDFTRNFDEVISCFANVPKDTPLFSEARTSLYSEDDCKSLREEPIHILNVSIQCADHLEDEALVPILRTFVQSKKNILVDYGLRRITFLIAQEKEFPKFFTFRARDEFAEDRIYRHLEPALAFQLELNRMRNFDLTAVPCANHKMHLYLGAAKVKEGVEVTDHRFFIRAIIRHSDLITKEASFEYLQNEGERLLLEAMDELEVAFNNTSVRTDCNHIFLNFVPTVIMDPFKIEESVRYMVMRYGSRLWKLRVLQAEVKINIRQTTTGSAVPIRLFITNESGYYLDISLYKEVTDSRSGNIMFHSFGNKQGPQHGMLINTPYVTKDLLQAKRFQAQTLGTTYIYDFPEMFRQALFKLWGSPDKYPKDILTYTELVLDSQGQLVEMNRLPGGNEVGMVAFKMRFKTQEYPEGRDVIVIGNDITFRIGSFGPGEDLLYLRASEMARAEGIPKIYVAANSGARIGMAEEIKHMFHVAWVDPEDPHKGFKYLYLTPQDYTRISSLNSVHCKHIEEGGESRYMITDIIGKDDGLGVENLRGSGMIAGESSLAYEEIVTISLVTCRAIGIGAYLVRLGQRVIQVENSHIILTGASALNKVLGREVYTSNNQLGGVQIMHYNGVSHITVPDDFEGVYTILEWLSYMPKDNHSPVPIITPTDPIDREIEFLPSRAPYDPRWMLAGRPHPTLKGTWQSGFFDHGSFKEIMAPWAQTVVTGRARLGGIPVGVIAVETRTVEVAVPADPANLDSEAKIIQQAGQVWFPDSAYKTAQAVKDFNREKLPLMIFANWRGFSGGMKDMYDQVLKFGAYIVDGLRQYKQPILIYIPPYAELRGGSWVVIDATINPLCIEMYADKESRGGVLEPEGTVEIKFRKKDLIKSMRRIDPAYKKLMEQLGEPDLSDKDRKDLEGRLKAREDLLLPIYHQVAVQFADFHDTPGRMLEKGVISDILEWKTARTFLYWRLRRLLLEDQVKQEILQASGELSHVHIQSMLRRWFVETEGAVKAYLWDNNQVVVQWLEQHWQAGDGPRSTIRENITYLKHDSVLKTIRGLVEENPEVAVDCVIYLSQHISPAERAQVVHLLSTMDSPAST

In the case of `C[C@@H](CO[C@H]1CC[C@H](Oc2nc3c(F)cc(OCC(F)F)c(F)c3n2C)CC1)NS(N)(=O)=O` [Example I-242], the IC50 on recombinant human ACC2 was 120 nM; at recombinant human ACC1, greater than 100000 nM.
In the case of `Cn1c(O[C@H]2CC[C@H](OC[C@H](CF)NC(=O)C3CC3)CC2)nc2c(F)cc(OCC(F)F)c(F)c21` [Example I-233], the values for the IC50 at recombinant human ACC2 and at recombinant human ACC1 were 31 nM and greater than 100000 nM, respectively.
Consider `Cn1c(O[C@H]2CC[C@H](OC[C@H](CF)NC(=O)CO)CC2)nc2c(F)cc(OCC(F)F)c(F)c21` [Example I-245], for which the IC50 is 53 nM at recombinant human ACC2 and greater than 100000 nM on recombinant human ACC1.
As to `CC(=O)N[C@@H](C)CC(F)(F)[C@@H]1CC[C@@H](Oc2nc3c(F)cc(OCC(F)F)c(F)c3n2C)CO1` [Example I-230], the IC50 at recombinant human ACC2 was 89 nM; on recombinant human ACC1, greater than 100000 nM.
In the case of `CC(=O)N[C@@H](C)CO[C@H]1CC[C@H](Oc2nc3ncc(OC4CC4)cc3n2C)CC1` [Example I-199], the IC50 was 730 nM at recombinant human ACC2 and greater than 100000 nM on recombinant human ACC1.

The values above are taken from patent US10233156B2, “9-membered fused ring derivative” (Shionogi & Co., Ltd., priority 2015, dated 2019).
